Results reported in patent US10837044B2, “Automated method for analyzing and interpreting an antimicrobial susceptibility” (FONDATION MEDITERRANEE INFECTION, priority 2014, dated 2020).

Key:
Assay in all cases: antibiogram by diffusion on Mueller-Hinton agar with antibiotic wafers
Format in all cases: cell-based
Escherichia coli = details: for resistant (I/R) or sensitive (S): Table C2, square dish; for resistance (I, R) or sensitivity (S): Table C1, disk loads of Table B
Experimental: (§1) The inoculum was prepared by making a suspension of bacteria directly from colonies put into solution in tubes of sterile water so that the solution presented accurate opacity as determined with a spectrophotometer equivalent to the opacity of a 0.5 standard in the McFarland range. This bacterial suspension concentration is standardized since a more concentrated inoculum would lead to smaller diameters for the inhibition zone, and vice versa.
(§2) The inoculum corresponds to concentrations of about 10^8 CFU/mL for Escherichia coli, Klebsiella pneumoniae, Proteus mirabilis, Klebsiella oxytoca, Enterobacter cloacea, Enterobacter aerogenes, Entercoccus faecalis, Pseudomonas aeruginosa, Staphylococcus aureus, and Staphylococcus epidermidis. These are the ten species bacteria that are encountered the most frequently in human pathologies.
(§3) 1.2) The bacterial sample was deposited on a solid culture medium in a petri dish having a diameter of 90 mm or in a square dish having a side of 120 mm, the medium being constituted by a Mueller-Hinton agar specific for (EUCAST) antibiograms. Ideally, it should be used in the 15 minutes (min) following preparation of the suspension.
(§4) Seeding was done by the method of diffusion on an agar medium by flooding in which excess bacterial suspension was added to the Mueller-Hinton agar. After homogenizing, excess liquid was discarded in order to avoid over-inoculating the dishes. It is necessary to wait beforehand for the surface of the agar to be dry in order to eliminate any trace of moisture encouraging bacterial invasion.
(§5) The disks of the antibiotic wafers were deposited within 15 min after inoculating the agar. The antibiotic impregnated disks were deposited using an automatic dispenser that placed the disks firmly on the surface of the inoculated and dried agar. The number of disks deposited per dish was limited because of inhibition zone overlap and in order to limit interference between antibiotics. It is important for the inhibition diameters to be measurable. The antibiograms were then incubated at 37° C. for 18 hours (h) to 24 h.
(§6) The antibiotic wafers were made of high quality absorbent paper with a diameter of 6 mm and they were impregnated with antibiotics at concentrations in the range 1 micrograms (μg) to 300 μg approximately, depending on the antibiotic.
(§7) In the examples below, reference disks were used as sold by the suppliers i2a (Montpellier, France), BD (Becton Dickinson, USA), Bio-Rad (Hercules, USA), Biomerieux (Marcy l′Etoile, France) containing the following antibiotics and carrying the following codes and the following doses: AMX (amoxicillin) 25 μg: AMC (amoxicillin-clavulanic acid) 20 μg-10 μg; GM for gentamicin, 15 μg; SXT (trimethoprim-sulfamethoxazole) 1.25/23.75 μg; TIC (ticarcillin) 75 μg; TCC (ticarcillin-clavulanic acid) […]; TZP (piperacillin-tazobactam) 75/10 μg; CAZ (ceftazidime) 30 μg; IMP or IPM (imipeneme) 10 μg; COL (colistin) 50 μg; FOX (cefoxitine) 30 μg; VAN (vancomycin) 30 μg; TEC (teicoplanin) 30 μg; CLI or DA (clindamycin) 2 μg; CRO (ceftriaxone) 30 μg; CIP (ciprofloxacin) 5 μg; OFX (ofloxacin) 5 μg; CTX (cefotaxime) 5 μg; AN or AK (amikacin) 30 μg; TM (tobramycin) 10 μg; FOX (cefoxitine) 30 μg; ATM (aztreonam) 30 μg; ERT (ertapenem) 10 μg; FF (fosfomycin) 200 μg; DO (doxycycline) 30 μg; K (kanamycin) 1000 μg; L (lincomycin) 15 μs; LNZ (linezolid) 10 μg; AN (nalidixic acid) 30 μg; NOR (norfloxacin) 10 μg; PT (pristinamycin) 15 μg; RA (rifampicin) 5 μg; and E (erythromycin) 15 μg.

Klebsiella pneumoniae = details: Table C2, sixteen wafers, square dish
Experimental: as §1, §2, §3, §4, §5, §6, §7

Staphylococcus aureus = details: for resistance (I, R) or sensitivity (S): Table C1, six wafers, disk loads of Table B; for resistant (I/R) or sensitive (S): Table C2, sixteen wafers, square dish
Experimental: as §1, §2, §3, §4, §5, §6, §7

[1] = system: Staphylococcus epidermidis; details: Table C1, six wafers, disk loads of Table B
Experimental: as §1, §2, §3, §4, §5, §6, §7

Entercoccus faecalis = details: Table C1, six wafers, disk loads of Table B
Experimental: as §1, §2, §3, §4, §5, §6, §7

Proteus mirabilis = details: Table C1, six wafers, disk loads of Table B
Experimental: as §1, §2, §3, §4, §5, §6, §7

[2] = E. coli phenotype Cephalosporinase + R to fluoroquinolones + R to cotrimoxazole + partial R to aminosides, sixteen wafers
[3] = E. coli phenotype Hl penicillinase + R to fluoroquinolones + R to cotrimoxazole + partial R to aminosides, sixteen wafers
[4] = E. coli phenotype Wild, sixteen wafers in a rectangular grid
[5] = K. pneumoniae phenotype Cephalosporinase + R to aminosides + R to cotrimoxazole
[6] = S. aureus phenotype Methicillin resistant
[7] = S. aureus phenotype R to methicilline, R to aminosides, fluoroquinolones, to rifampicie, to macrolides and the like
[8] = S. epidermidis phenotype Methicillin resistant

Compound	resistant (I/R) or sensitive (S) (Escherichia coli; [2])	resistant (I/R) or sensitive (S) (Escherichia coli; [3])	resistant (I/R) or sensitive (S) (Escherichia coli; [4])	resistant (I/R) or sensitive (S) (Klebsiella pneumoniae; [5])	resistant (I/R) or sensitive (S) (Klebsiella pneumoniae; K. pneumoniae phenotype Wild)	resistance (I, R) or sensitivity (S) (Staphylococcus aureus; [6])	resistance (I, R) or sensitivity (S) (Staphylococcus aureus; S. aureus phenotype Wild)	resistant (I/R) or sensitive (S) (Staphylococcus aureus; [7])	resistant (I/R) or sensitive (S) (Staphylococcus aureus; S. aureus phenotype Wild)	resistance (I, R) or sensitivity (S) [1, 8]	resistance (I, R) or sensitivity (S) ([1]; S. epidermidis phenotype Wild)	resistance (I, R) or sensitivity (S) (Entercoccus faecalis; E. faecalis phenotype Atypical)	resistance (I, R) or sensitivity (S) (Entercoccus faecalis; E. faecalis phenotype Wild)	further results
CO[C@@]1(NC(=O)Cc2cccs2)C(=O)N2C(C(=O)O)=C(COC(N)=O)CS[C@@H]21 [FOX, cefoxitine]	S	S	S	S	S	R	S	R	S	R	S	–	–	–
CCC[C@@H]1C[C@@H](C(=O)N[C@@H]([C@H]2O[C@H](SC)[C@H](O)[C@@H](O)[C@H]2O)[C@H](C)Cl)N(C)C1 [CLI, clindamycin]	–	–	–	–	–	–	S	R	S	–	S	–	–	–
CN[C@H](CC(C)C)C(=O)N[C@H]1C(=O)N[C@@H](CC(N)=O)C(=O)N[C@H]2C(=O)N[C@H]3C(=O)N[C@H](C(=O)N[C@H](C(=O)O)c4cc(O)cc(O)c4-c4cc3ccc4O)[C@H](O)c3ccc(c(Cl)c3)Oc3cc2cc(c3O[C@@H]2O[C@H](CO)[C@@H](O)[C@H](O)[C@H]2O[C@H]2C[C@](C)(N)[C@H](O)[C@H](C)O2)Oc2ccc(cc2Cl)[C@H]1O [VAN, vancomycin]	–	–	–	–	–	S	S	S	S	S	S	S	S	–
CC1(C)S[C@@H]2[C@H](NC(=O)[C@H](N)c3ccc(O)cc3)C(=O)N2[C@H]1C(=O)O [AMX, amoxicillin]	R	R	S	R	R	–	–	–	–	–	–	R	S	synergy zone between two antibiotic wafers placed side by side (Escherichia coli; E. coli cephalosporinase phenotype (FIGS. 2D, 2E)): absence of a zone of synergy; synergy zone between two antibiotic wafers placed side by side (Escherichia coli; E. coli strain of BSBL phenotype, champagne-cork shaped inhibition zone): presence of a zone of synergy; resistance (I, R) or sensitivity (S) (Escherichia coli; E. coli phenotype BSBL, six wafers): R; resistance (I, R) or sensitivity (S) (Escherichia coli; E. coli phenotype Carbapenemase, six wafers): R; resistance (I, R) or sensitivity (S) (Escherichia coli; E. coli phenotype Hl cephalosporinase, six wafers): R; resistance (I, R) or sensitivity (S) (Escherichia coli; E. coli phenotype Hl penicillinase, six wafers): R; resistance (I, R) or sensitivity (S) (Escherichia coli; E. coli phenotype Inhibitor resistant penicillinase, six wafers): R; resistance (I, R) or sensitivity (S) (Escherichia coli; E. coli phenotype Ll penicillinase, six wafers): R; resistance (I, R) or sensitivity (S) (Escherichia coli; E. coli phenotype Wild, six wafers in a circle): S; resistance (I, R) or sensitivity (S) (Proteus mirabilis; P. mirabilis phenotype Hl cephalosporinase): R; resistance (I, R) or sensitivity (S) (Proteus mirabilis; P. mirabilis phenotype Hl penicillinase): R; resistance (I, R) or sensitivity (S) (Proteus mirabilis; P. mirabilis phenotype Inhibitor resistant penicillinase): R; resistance (I, R) or sensitivity (S) (Proteus mirabilis; P. mirabilis phenotype Ll penicillinase): R; resistance (I, R) or sensitivity (S) (Proteus mirabilis; P. mirabilis phenotype Wild): S
gentamicin	R	R	S	R	R	S	S	R	S	S	S	S	S	–
teicoplanin [TEC]	–	–	–	–	–	S	S	S	S	S	S	S	S	–
trimethoprim-sulfamethoxazole (cotrimoxazole) [SXT]	R	R	S	R	R	S	S	R	S	S	S	–	–	–
